# What was measured:
# Experiment in all cases: Paper disk method, enhancing action for activities of azole antifungal agents
# Assay type in all cases: cell-based
# [1] = tested on: Aspergillus niger ATCC 6275; details: 48 hours; for Inhibition activity (inhibition ring mm) A. niger ATCC 6275 GYF / Transparency of the inhibition ring A. niger ATCC 6275 GYF: fluconazole 10 μg/ml; for Inhibition activity (inhibition ring mm) A. niger ATCC 6275 GY / Transparency of the inhibition ring A. niger ATCC 6275 GY: GY medium (control, no azole); for Inhibition activity (inhibition ring mm) A. niger ATCC 6275 GYM / Transparency of the inhibition ring A. niger ATCC 6275 GYM: miconazole 0.1 μg/ml
# Procedure, shortened: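 Paper-disk assay on A. niger ATCC 6275 spores (0.2%) seeded on GY agar pH 6.0. After 48 h, inhibition-zone diameter recorded in mm and transparency graded A (transparent) to E (opaque).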
# [2] = tested on: fluconazole resistant Candida albicans ATCC 64550; details: 24 hours; for Inhibition activity (inhibition ring mm) C. albicans ATCC 64550 GYF / Transparency of the inhibition ring C. albicans ATCC 64550 GYF: fluconazole 30 μg/ml; for Inhibition activity (inhibition ring mm) C. albicans ATCC 64550 GYM / Transparency of the inhibition ring C. albicans ATCC 64550 GYM: miconazole 0.15 μg/ml
# Procedure, shortened: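 Paper disk assay on GY agar (pH 6.0) seeded with Waksman-broth-grown C. albicans ATCC 64550 (0.1% inoculum). Medium was supplemented with sub-growth-inhibitory miconazole 0.15 μg/ml or fluconazole 30 μg/ml. After 24 h, inhibition-zone diameter was measured in mm and transparency graded A–E (A most transparent, E opaque).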
# [3] = tested on: Candida albicans ATCC 64548; details: 24 hours; for Inhibition activity (inhibition ring mm) C. albicans ATCC 64548 GYM / Transparency of the inhibition ring C. albicans ATCC 64548 GYM: miconazole 0.03 μg/ml; for Inhibition activity (inhibition ring mm) C. albicans ATCC 64548 GYF / Transparency of the inhibition ring C. albicans ATCC 64548 GYF: fluconazole 0.5 μg/ml
# Procedure, shortened: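 GY agar (pH 6.0) seeded with C. albicans ATCC 64548 precultured in Waksman broth at 27° C for 40 hours, supplemented with sub-growth-inhibitory miconazole 0.03 μg/ml or fluconazole 0.5 μg/ml. Paper disk method; inhibition-zone diameter (mm) read after 24 hours, transparency graded A–E.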
Compound,Inhibition activity (inhibition ring mm) A. niger ATCC 6275 GYF ([1]; 10 μg/8 mm disk) [mm],Transparency of the inhibition ring A. niger ATCC 6275 GYF ([1]; 10 μg/8 mm disk),Inhibition activity (inhibition ring mm) A. niger ATCC 6275 GY ([1]; 50 μg/8 mm disk) [mm],Transparency of the inhibition ring A. niger ATCC 6275 GY ([1]; 50 μg/8 mm disk),Inhibition activity (inhibition ring mm) A. niger ATCC 6275 GYF ([1]; 50 μg/8 mm disk) [mm],Transparency of the inhibition ring A. niger ATCC 6275 GYF ([1]; 50 μg/8 mm disk),Inhibition activity (inhibition ring mm) A. niger ATCC 6275 GYM ([1]; 50 μg/8 mm disk) [mm],Transparency of the inhibition ring A. niger ATCC 6275 GYM ([1]; 50 μg/8 mm disk),Inhibition activity (inhibition ring mm) C. albicans ATCC 64550 GYF ([2]; 50 μg/8 mm disk) [mm],Transparency of the inhibition ring C. albicans ATCC 64550 GYF ([2]; 50 μg/8 mm disk),Inhibition activity (inhibition ring mm) C. albicans ATCC 64550 GYM ([2]; 50 μg/8 mm disk) [mm],Transparency of the inhibition ring C. albicans ATCC 64550 GYM ([2]; 50 μg/8 mm disk),Inhibition activity (inhibition ring mm) C. albicans ATCC 64548 GYM ([3]; 10 μg/8 mm disk) [mm],Transparency of the inhibition ring C. albicans ATCC 64548 GYM ([3]; 10 μg/8 mm disk),Inhibition activity (inhibition ring mm) C. albicans ATCC 64548 GYF ([3]; 50 μg/8 mm disk) [mm],Transparency of the inhibition ring C. albicans ATCC 64548 GYF ([3]; 50 μg/8 mm disk),Inhibition activity (inhibition ring mm) C. albicans ATCC 64548 GYM ([3]; 50 μg/8 mm disk) [mm],Transparency of the inhibition ring C. albicans ATCC 64548 GYM ([3]; 50 μg/8 mm disk),Inhibition activity (inhibition ring mm) C. albicans ATCC 64550 GYF ([2]; 10 μg/8 mm disk) [mm],Transparency of the inhibition ring C. albicans ATCC 64550 GYF ([2]; 10 μg/8 mm disk),other results
"CCC(OC(=O)c1ccccc1)C(C)(O)C1OC(=O)C(C)C(OC2CC(C)(OC)C(O)C(C)O2)C(C)C(OC2OC(C)CC(N(C)C)C2O)C2(C)CC(C)=C(O2)C1C (stereo not drawn) [Compound 779, 13-O -benzoyl-8,9-Anhydro-pseudoerythro-mycin A 6,9-hemiketal]",11,E (Growth of test organism was inhibited 35% or less.),11,E (Growth of test organism was inhibited 35% or less.),13,D (Growth of test organism was inhibited 35% or more and 55% or less.),17,E (Growth of test organism was inhibited 35% or less.),10,E (Growth of test organism was inhibited 35% or less.),11,D (Growth of test organism was inhibited 35% or more and 55% or less.),10,E (Growth of test organism was inhibited 35% or less.),9,D (Growth of test organism was inhibited 35% or more and 55% or less.),15,A (Growth of test organism was inhibited 95% or more.),,,
CCCCCC(=O)OC1C(C)OC(OC2C(C)C(=O)OC(C(C)(O)C(CC)OC(=O)CCCCC)C(C)C3=C(C)CC(C)(O3)C(OC3OC(C)CC(NC)C3O)C2C)CC1(C)OC (stereo not drawn) [Compound 852],,,9,E (Growth of test organism was inhibited 35% or less.),8,D (Growth of test organism was inhibited 35% or more and 55% or less.),8,C (Growth of test organism was inhibited 55% or more and 75% or less.),11,A (Growth of test organism was inhibited 95% or more.),10,B (Growth of test organism was inhibited 75% of more and 95% or less.),,,,,9,A (Growth of test organism was inhibited 95% or more.),9,C (Growth of test organism was inhibited 55% or more and 75% or less.),Inhibition activity (inhibition ring mm) A. niger ATCC 6275 GY ([1]; 100 μg/8 mm disk): 10 mm; Transparency of the inhibition ring A. niger ATCC 6275 GY ([1]; 100 μg/8 mm disk): E (Growth of test organism was inhibited 35% or less.); Inhibition activity (inhibition ring mm) A. niger ATCC 6275 GYF ([1]; 100 μg/8 mm disk): 9 mm; Transparency of the inhibition ring A. niger ATCC 6275 GYF ([1]; 100 μg/8 mm disk): D (Growth of test organism was inhibited 35% or more and 55% or less.); Inhibition activity (inhibition ring mm) A. niger ATCC 6275 GYM ([1]; 100 μg/8 mm disk): 9 mm; Transparency of the inhibition ring A. niger ATCC 6275 GYM ([1]; 100 μg/8 mm disk): A (Growth of test organism was inhibited 95% or more.); Inhibition activity (inhibition ring mm) C. albicans ATCC 64550 GYM ([2]; 10 μg/8 mm disk): 9 mm; Transparency of the inhibition ring C. albicans ATCC 64550 GYM ([2]; 10 μg/8 mm disk): C (Growth of test organism was inhibited 55% or more and 75% or less.); Inhibition activity (inhibition ring mm) C. albicans ATCC 64550 GYF ([2]; 100 μg/8 mm disk): 12 mm; Transparency of the inhibition ring C. albicans ATCC 64550 GYF ([2]; 100 μg/8 mm disk): A (Growth of test organism was inhibited 95% or more.); Inhibition activity (inhibition ring mm) C. albicans ATCC 64550 GYM ([2]; 100 μg/8 mm disk): 12 mm; Transparency of the inhibition ring C. albicans ATCC 64550 GYM ([2]; 100 μg/8 mm disk): B (Growth of test organism was inhibited 75% of more and 95% or less.); Inhibition activity (inhibition ring mm) C. albicans ATCC 64548 GYM ([3]; 100 μg/8 mm disk): 10 mm; Transparency of the inhibition ring C. albicans ATCC 64548 GYM ([3]; 100 μg/8 mm disk): A (Growth of test organism was inhibited 95% or more.)
"CCC(OC(C)=O)C(C)(O)C1OC(=O)C(C)C(OC2CC(C)(OC)C(OC(C)=O)C(C)O2)C(C)C(OC2OC(C)CC(NC)C2O)C2(C)CC(C)=C(O2)C1C (stereo not drawn) [Compound 756, 4″,13-Di-O-acetyl-de (3′-N-methyl)-8,9-Anhydro-pseudoerythromycin A 6,9-hemiketal]",,,10,E (Growth of test organism was inhibited 35% or less.),14,E (Growth of test organism was inhibited 35% or less.),14,E (Growth of test organism was inhibited 35% or less.),,,,,,,,,,,,,Inhibition activity (inhibition ring mm) C. albicans ATCC 64550 GYM ([2]; 100 μg/8 mm disk): 10 mm; Transparency of the inhibition ring C. albicans ATCC 64550 GYM ([2]; 100 μg/8 mm disk): E (Growth of test organism was inhibited 35% or less.); Inhibition activity (inhibition ring mm) C. albicans ATCC 64548 GYM ([3]; 100 μg/8 mm disk): 15 mm; Transparency of the inhibition ring C. albicans ATCC 64548 GYM ([3]; 100 μg/8 mm disk): D (Growth of test organism was inhibited 35% or more and 55% or less.)
"CCC(OC(=O)c1ccccc1)C(C)(O)C1OC(=O)C(C)C(OC2CC(C)(OC)C(OC(=O)c3ccccc3)C(C)O2)C(C)C(OC2OC(C)CC(N(C)C)C2OC(C)=O)C2(C)CC(C)=C(O2)C1C (stereo not drawn) [Compound 773, 2′-O-acetyl-4″,13-Di-O-benzoyl-8,9-Anhydro-pseudoerythromycin A 6,9-hemiketal]",10,E (Growth of test organism was inhibited 35% or less.),,,15,E (Growth of test organism was inhibited 35% or less.),15,B (Growth of test organism was inhibited 75% of more and 95% or less.),15,A (Growth of test organism was inhibited 95% or more.),14,A (Growth of test organism was inhibited 95% or more.),13,C (Growth of test organism was inhibited 55% or more and 75% or less.),12,E (Growth of test organism was inhibited 35% or less.),16,A (Growth of test organism was inhibited 95% or more.),11,E (Growth of test organism was inhibited 35% or less.),Inhibition activity (inhibition ring mm) A. niger ATCC 6275 GYM ([1]; 10 μg/8 mm disk): 13 mm; Transparency of the inhibition ring A. niger ATCC 6275 GYM ([1]; 10 μg/8 mm disk): E (Growth of test organism was inhibited 35% or less.); Inhibition activity (inhibition ring mm) C. albicans ATCC 64550 GYM ([2]; 10 μg/8 mm disk): 10 mm; Transparency of the inhibition ring C. albicans ATCC 64550 GYM ([2]; 10 μg/8 mm disk): C (Growth of test organism was inhibited 55% or more and 75% or less.)

# From US20050176655A1, “Novel macrolide derivatives havaing effect of potentiating antifungal activity” (priority 2002, published 2005)
